{"source": "patent US20260226552A1", "about": "“MUC5AC IN PANCREATIC DUCTAL ADENOCARCINOMA” (Ohio State Innovation Foundation, priority 2023, published 2026)", "key": {"MUC5AC [1]": {"system": "MUC5AC", "experiment": "Immunohistochemistry of MUC5AC glycoforms (45M1, CLH2) in resected PDA tissue, H-score and extracellular detection", "format": "in vivo, human", "settings": "neoadjuvant therapy group by chemotherapy", "experimental": "Immunohistochemistry. […] The assay methodology development, optimization, and validation mirrors any new clinical immunohistochemical assay development in the laboratory. […] Briefly, the assay is performed on automated Stainer's (Leica Bond or Dako) in the laboratory. Appropriate positive (e.g., normal stomach) and negative tissue (e.g. normal pancreas) controls are used to optimize and validate the assay. The best pretreatment and antibody detection systems are determined using the manufacturer's antibody datasheet, and titration of at least three antibody dilutions are performed. If there is no recommendation from the manufacturer, the antibody is tested by trying the different lab pretreatment and detection system methods in order to determine the best method. Antibody dilutions may need to be optimized, depending on the results of initial testing. A pathologist reviews the slides from the validation run to determine the optimal methodology. Assessment of MUC5AC immunohistochemical staining. The immunohistochemical-labelled whole tumor section slides is reviewed by a pathologist with expertise in pancreaticobiliary pathology. The slides are reviewed for the expression patterns (Cytoplasmic vs Membranous) and scored for the extent (% of tumor stain) and intensity of staining (Negative 0, mild 1+, moderate 2+ and strong +3). A semiquantitative approach of H-score is assigned to tumor samples for statistical analysis. […] Tumor with scores <10 are considered as negative for expression. […] One hundred resected PDA specimens and serum samples were collected. 43 patients had neoadjuvant therapy (NAT), and 57 had upfront surgery (UpS). […] The presence or absence of extracellular (EC) expression was also studied. […] NR vs. […] Five of them were heavily treated with systemic therapy. […] Serum samples for the patients were collected at different time points of the management. This allowed for studying the relationship between serum MUC5AC with the known pancreatic cancer tumor marker CA 19-9 and MUC5AC's role in predicting treatment response. […] PR vs. […] The CA 19-9 levels followed the same trend (nCR vs. PR vs. NR=129 vs. 452 vs. 958, p>0.05). […] This can explain larger tumors in these groups. […] It should be noted that CA 19-9 levels were very high but not statistically significant in lower MUC5AC groups. One key takeaway from this is that PFS is not only driven by the pathological response in NAT group. Clinically, this may translate into guiding the physicians about the timing of surgery while on systemic therapy. […] OR vs. NR, 2.64 vs. 0.9, p=0.05). • There were 17 patients within 8 weeks of surgery, 9 within 5 weeks, and 8 from 5-8 weeks. The mean MUC5AC was lower than the ones noted in the pretreatment/presurgery population (1.2 ng/mL). […] The pathological response noted on the resected sample in NAT-group reported from the scale of 1-3 based on the treatment response. For practical purposes, patients with extensive tumors with no evident tumor regression or 3 were designated as the no-response (NR) group. Patients with residual tumors with evidence of regression or 2 and near complete response or single cells or small group of cancer cells or 1 were considered as partial-response (PR) or near complete-response (nCR), respectively."}, "[2]": {"system": "pancreatic cell lines (PCLs)", "experiment": "Chemosensitivity of pancreatic cell lines by MUC5AC expression level", "format": "cell-based", "source_text": "It was also shown that MUC5AC detected by CLH2 (immature) and 45M1 (mature) mabs are differently localized (Ho, J. J., et al., Secretion of MUC5AC mucin from pancreatic cancer cells in response to forskolin and VIP. Biochem Biophys Res Commun, 2002. 294(3): p. 680-6). NPC-1C-specific (immunogenic) MUC5AC has a distribution similar to mature MUC5AC. It can therefore be concluded that there are differences in chemosensitivities MUC5AC^negative MUC5AC^low to moderate and MUC5AC^high pancreatic cell lines (PCLs).\nThus, adding localization and other isoform data to the level of mature MUC5AC expression gives a better predictive signal in PDA patients."}, "MUC5AC [3]": {"system": "MUC5AC", "experiment": "Serum MUC5AC by ELISA kit in PDA patients", "format": "in vivo, human", "settings": "recurrent group, adjuvant therapy", "source_text": "One hundred resected PDA specimens and serum samples were collected. 43 patients had neoadjuvant therapy (NAT), and 57 had upfront surgery (UpS). The cellular expression of MUC5AC was studied in the resected formalin-fixed paraffin-embedded tissue through immunohistochemistry using 45M1 and CLH2 antibodies. The expression levels in the tissue were estimated using H-score intensity (0-3)X % of tumor cells with expression with results ranging from 0-300. The presence or absence of extracellular (EC) expression was also studied. Below is a summary of some significant findings. • CLH2-MUC5AC was identified in the perinuclear region or cytoplasm, while 45M1-MUC5AC was identified in apical and EC regions. […] Human serum MUC5AC levels were analyzed using the Human MUC5AC ELISA Kit (Catalog number NBP2-76703, Novus Biologicals, Centennial, CO). 45M1 and CLH2 could not be detected in the serum samples, but the commercially available kits allowed detection and measuring of MUC5AC. […]\nThere was an analysis of patients with serum MUC5AC levels available post-NAT […] to understand if serum MuC5AC levels help predict treatment response. […] The correlation between tissue (45M1 and CLH2) and serum MUC5AC levels was analyzed as the former correlated with treatment response in NAT-group."}, "[4]": {"settings": "compared with MUC5AC low to moderate PCLs"}, "[5]": {"settings": "compared with MUC5AC negative PCLs"}}, "note": "Marks after values point to notes of the source that are not given here.", "data": [{"smiles": "O=c1[nH]cc(F)c(=O)[nH]1", "note": "[5FU, fluorouracil]", "values": [{"measurement": "45M1 H-score mean", "setting": "MUC5AC [1]", "value": 130}, {"measurement": "45M1 H-score median (range)", "setting": "MUC5AC [1]", "value": "105 (0-270)"}, {"measurement": "45M1 detection rate", "setting": "MUC5AC [1]", "value": 89, "unit": "%"}, {"measurement": "CLH2 H-score mean", "setting": "MUC5AC [1]", "value": 126}, {"measurement": "CLH2 H-score median (range)", "setting": "MUC5AC [1]", "value": "95 (0-270)"}, {"measurement": "CLH2 detection rate", "setting": "MUC5AC [1]", "value": 89, "unit": "%"}, {"measurement": "EC-45M1 detection rate", "setting": "MUC5AC [1]", "value": 58, "unit": "%"}, {"measurement": "chemosensitivity of MUC5AC high PCLs", "setting": "[2]; [4]", "value": "more sensitive"}, {"measurement": "chemosensitivity of MUC5AC high PCLs", "setting": "[2]; [5]", "value": "more sensitive"}]}, {"smiles": "CCc1c2c(nc3ccc(OC(=O)N4CCC(N5CCCCC5)CC4)cc13)-c1cc3c(c(=O)n1C2)COC(=O)[C@]3(O)CC", "note": "[Irinotecan, irinotecan]", "values": [{"measurement": "chemosensitivity of MUC5AC high PCLs", "setting": "[2]; [5]", "value": "more sensitive"}]}, {"smiles": "N.N.[Cl][Pt][Cl]", "note": "[Cisplatin, cisplatin]", "values": [{"measurement": "chemosensitivity of MUC5AC high PCLs", "setting": "[2]; [4]", "value": "more sensitive"}, {"measurement": "chemosensitivity of MUC5AC high PCLs", "setting": "[2]; [5]", "value": "more sensitive"}]}, {"smiles": "O=C1[O][Pt]2([NH][C@@H]3CCCC[C@H]3[NH]2)[O]C1=O", "note": "[Oxaliplatin, oxaliplatin]", "values": [{"measurement": "chemosensitivity of MUC5AC high PCLs", "setting": "[2]; [4]", "value": "more sensitive"}, {"measurement": "chemosensitivity of MUC5AC high PCLs", "setting": "[2]; [5]", "value": "resistant"}]}, {"smiles": "Nc1ccn([C@@H]2O[C@H](CO)[C@@H](O)C2(F)F)c(=O)n1", "note": "[Gem, gemcitabine]", "values": [{"measurement": "45M1 H-score mean", "setting": "MUC5AC [1]", "value": 116}, {"measurement": "45M1 H-score median (range)", "setting": "MUC5AC [1]", "value": "150 (10-210)"}, {"measurement": "45M1 detection rate", "setting": "MUC5AC [1]", "value": 100, "unit": "%"}, {"measurement": "CLH2 H-score mean", "setting": "MUC5AC [1]", "value": "150)/90"}, {"measurement": "CLH2 H-score median (range)", "setting": "MUC5AC [1]", "value": 120}, {"measurement": "CLH2 detection rate", "setting": "MUC5AC [1]", "value": 100, "unit": "%"}, {"measurement": "EC-45M1 detection rate", "setting": "MUC5AC [1]", "value": 60, "unit": "%"}, {"measurement": "chemosensitivity of MUC5AC high PCLs", "setting": "[2]; [4]", "value": "resistant"}, {"measurement": "chemosensitivity of MUC5AC high PCLs", "setting": "[2]; [5]", "value": "resistant"}, {"measurement": "Serum MUC5AC", "setting": "MUC5AC [3]; after chemotherapy", "value": "5.3* ng/mL"}, {"measurement": "Serum MUC5AC", "setting": "MUC5AC [3]; before chemotherapy", "value": 1.1, "unit": "ng/mL"}]}]}
